Several values for one entry are separate records, joined by “and”; a condition that tells them apart may be missing. Equal values may be shown once. Blank lines part the entries; values can stand above or below the molecule they belong to.
Legend:
cUSP47CD = cUSP47CD (Caenorhabditis elegans, UniProt Q22240); assay: Ub-AMC enzymatic inhibition assay, cUSP47CD; format: biochemical; set-up: Residual enzymatic activity, cUSP47CD_IC50(p50429): unit not given here
Description: (§1) Enzymes and substrates were diluted in the reaction buffer (20 mM HEPES, pH 7.4, 150 mM NaCl, and 5 mM DTT) to a concentration of 5 μM for the substrate and 0.5 μM for the enzymes. At the indicated time points following the reaction initiation, 10 μL reaction aliquots were taken and the reaction was stopped by adding SDS sampling buffer and analyzed using SDS-PAGE. Then, the 4–15% gradient gel was stained with Coomassie Brilliant Blue R-250. USP enzymatic activity and inhibition assays were measured at room temperature using the cleavage-sensitive fluorogenic substrate Ub-AMC (Boston Biochem, U-550). The deubiquitination assay was performed following the protocol by Ernst et al.[30]. Briefly, enzyme activity assays were performed in assay buffer in 20 mM HEPES (pH 7.4), 100 mM NaCl, and 5 mM DTT) containing cUSP47CD (in 50 nM), hUSP47CD-UBL12 (in 100 nM) or hUSP7CD (in 100 nM) constructs and serial dilutions of Ub-AMC (final 35 μM). The AMC fluorescence emission was monitored at 460 nm (excitation at 380 nm) for 30–60 min using a SpectraMax M3 plate reader (Molecular Devices). […] The data were fitted using GraphPad Prism 7 (GraphPad Inc.). Fluorescence intensity was recorded every 45 s for 90 min. Data are presented as the mean ± SD (n = 3).

hUSP7CD = target: T1, hUSP7CD (Homo sapiens, UniProt Q93009); assay: Ub-AMC enzymatic inhibition assay, hUSP7CD; format: biochemical
T1 construct: Swiss Prot entry: Q93009, residues 208–560; His6 (N); made in house; host or cells: E. coli BL21 (DE3) codon plus RIL
Description: (§2) Enzymes and substrates were diluted in the reaction buffer (20 mM HEPES, pH 7.4, 150 mM NaCl, and 5 mM DTT) to a concentration of 5 μM for the substrate and 0.5 μM for the enzymes. […] USP enzymatic activity and inhibition assays were measured at room temperature using the cleavage-sensitive fluorogenic substrate Ub-AMC (Boston Biochem, U-550). […] The AMC fluorescence emission was monitored at 460 nm (excitation at 380 nm) for 30–60 min using a SpectraMax M3 plate reader (Molecular Devices). […] The data were fitted using GraphPad Prism 7 (GraphPad Inc.). Fluorescence intensity was recorded every 45 s for 90 min. Data are presented as the mean ± SD (n = 3).

Flag-USP7 = target: T2, Flag-USP7 (Homo sapiens, UniProt Q93009); assay: Immunoprecipitation and DUB assay with K48-linked ubiquitin chains, Flag-USP7 from treated HEK293T cells; format: cell-based; details: HEK293T cells treated for 2 h, immunoprecipitated Flag-USP7, Fig. 2f
T2 construct: expressed in transfected cells; host or cells: HEK293T
Description: Fig. 2 Biochemical properties of USP47. a Domain structure of USP47 and the constructs used in this study. b HEK293T cells were transfected with USP Flag-tagged mutants. […] The IC50 values were determined in triplicate and fitted to a four-parameter logistic dose-response curve. Data are expressed as means ± SD.
HEK293T cells transfected with pFlag-CMV-2 vector, pFlag-USP7, or pFlag-USP47 were treated with drugs, as indicated, and lysed by protein lysis buffer (20 mM Tris–Cl, 150 mM NaCl, 1 mM EDTA, 1 mM EGTA, 1% Triton X-100, 2.5 mM sodium pyrophosphate, 50 mM NaF, 5 mM β-glycerophosphate, 1 mM Na3VO4, 1x protease inhibitor, pH 7.5). […] Flag affinity gel was washed 5 times with lysis buffer and the supernatant was removed carefully with a syringe after the last wash step. For elution, Flag agarose was incubated with 3× Flag peptide (Sigma Aldrich) in elution buffer (15 μg of Flag peptide in 50 μl of lysis buffer) for 30 min at 4 °C. The supernatants were collected as immunoprecipitates. […] Samples were analyzed by Western blot and detected with the anti-ubiquitin antibody.

HCT116 (p53+/+) cells = assay: Q-PCR relative expression levels, HCT116 (p53+/+); format: cell-based, human
cUSP47CD^R309N = assay: Ub-AMC enzymatic inhibition assay, cUSP47CD^R309N; format: biochemical, Caenorhabditis elegans; details: FT671 5 μM, Fig. 5d
Description: as §1

cUSP47CD^A416NA417H = assay: Ub-AMC enzymatic inhibition assay, cUSP47CD^A416NA417H; format: biochemical, Caenorhabditis elegans; details: FT671 5 μM, Fig. 5d
Description: as §1

cUSP47CD^R309NA416NA417H = assay: Ub-AMC enzymatic inhibition assay, cUSP47CD^R309NA416NA417H; format: biochemical, Caenorhabditis elegans; details: FT671 5 μM, Fig. 5d, compared with the double mutant
Description: as §1

hUSP7CD^N460AH461A = target: T3, hUSP7CD^N460AH461A (Homo sapiens, UniProt Q93009, H461A/N460A); assay: Ub-AMC enzymatic inhibition assay, hUSP7CD^N460AH461A; format: biochemical; details: FT671 5 μM, Fig. 5d
T3 construct: Swiss Prot entry: Q93009, residues 208–560; His6 (N); made in house; host or cells: E. coli BL21 (DE3) codon plus RIL
Description: as §2

USP7 = details: cited from earlier work; for potency and specificity for USP7: recently reported USP7 inhibitors
USP47 = details: cited from earlier work

Sequence of cUSP47CD (Q22240 entry or part of it): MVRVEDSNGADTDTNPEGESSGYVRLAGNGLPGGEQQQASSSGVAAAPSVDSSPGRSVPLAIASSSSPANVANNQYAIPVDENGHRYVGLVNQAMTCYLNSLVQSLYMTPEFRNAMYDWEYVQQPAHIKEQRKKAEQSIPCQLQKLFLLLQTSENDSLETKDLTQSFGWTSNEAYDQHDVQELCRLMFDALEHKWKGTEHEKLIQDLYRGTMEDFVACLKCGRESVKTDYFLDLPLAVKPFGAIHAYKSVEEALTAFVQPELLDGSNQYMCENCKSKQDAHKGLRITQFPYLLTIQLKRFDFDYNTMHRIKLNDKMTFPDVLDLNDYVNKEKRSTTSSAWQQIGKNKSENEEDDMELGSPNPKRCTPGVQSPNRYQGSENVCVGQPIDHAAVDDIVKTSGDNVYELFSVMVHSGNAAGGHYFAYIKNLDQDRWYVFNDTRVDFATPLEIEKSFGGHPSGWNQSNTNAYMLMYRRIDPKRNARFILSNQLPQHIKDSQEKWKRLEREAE
T1 sequence (Q93009 208-560): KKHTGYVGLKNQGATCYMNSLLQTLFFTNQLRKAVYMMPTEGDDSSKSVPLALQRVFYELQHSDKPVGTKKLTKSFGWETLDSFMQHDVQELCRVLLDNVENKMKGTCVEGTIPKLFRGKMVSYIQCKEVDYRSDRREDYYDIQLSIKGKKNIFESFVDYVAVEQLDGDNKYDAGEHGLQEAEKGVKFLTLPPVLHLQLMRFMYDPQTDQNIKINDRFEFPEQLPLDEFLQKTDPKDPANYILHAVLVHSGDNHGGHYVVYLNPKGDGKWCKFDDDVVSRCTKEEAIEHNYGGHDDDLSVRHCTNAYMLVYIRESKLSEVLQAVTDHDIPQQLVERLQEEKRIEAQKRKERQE
T2 sequence (Q93009 whole entry): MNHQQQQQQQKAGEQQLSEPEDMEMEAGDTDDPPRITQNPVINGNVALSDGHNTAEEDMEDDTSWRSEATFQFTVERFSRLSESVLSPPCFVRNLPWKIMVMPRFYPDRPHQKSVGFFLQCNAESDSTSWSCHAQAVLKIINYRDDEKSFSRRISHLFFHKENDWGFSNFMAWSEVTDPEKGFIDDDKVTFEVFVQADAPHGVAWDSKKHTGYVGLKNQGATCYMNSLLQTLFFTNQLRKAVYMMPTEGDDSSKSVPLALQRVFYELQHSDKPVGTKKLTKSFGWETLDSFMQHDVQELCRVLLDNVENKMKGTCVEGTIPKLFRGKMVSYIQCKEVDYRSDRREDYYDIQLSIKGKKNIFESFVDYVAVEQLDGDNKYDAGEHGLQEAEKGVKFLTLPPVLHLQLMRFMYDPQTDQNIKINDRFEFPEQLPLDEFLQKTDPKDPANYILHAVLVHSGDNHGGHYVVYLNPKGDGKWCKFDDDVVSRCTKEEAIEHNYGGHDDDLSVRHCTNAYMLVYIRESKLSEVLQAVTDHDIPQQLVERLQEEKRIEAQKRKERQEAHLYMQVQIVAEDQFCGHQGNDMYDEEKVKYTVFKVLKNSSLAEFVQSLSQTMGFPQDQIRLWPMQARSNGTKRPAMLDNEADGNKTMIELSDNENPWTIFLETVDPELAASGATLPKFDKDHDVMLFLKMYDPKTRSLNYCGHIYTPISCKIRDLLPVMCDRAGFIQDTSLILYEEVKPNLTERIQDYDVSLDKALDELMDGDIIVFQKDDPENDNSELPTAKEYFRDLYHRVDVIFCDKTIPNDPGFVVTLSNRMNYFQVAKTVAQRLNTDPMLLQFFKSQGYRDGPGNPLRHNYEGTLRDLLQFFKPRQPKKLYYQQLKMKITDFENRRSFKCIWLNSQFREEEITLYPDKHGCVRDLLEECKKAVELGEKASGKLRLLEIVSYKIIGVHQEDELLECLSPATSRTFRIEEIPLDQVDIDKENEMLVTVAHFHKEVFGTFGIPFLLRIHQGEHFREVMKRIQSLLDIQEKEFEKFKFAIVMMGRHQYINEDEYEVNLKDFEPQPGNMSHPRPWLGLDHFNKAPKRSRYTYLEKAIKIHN
T3 sequence (Q93009 208-560 N460A/H461A): as the sequence (Q93009 208-560) above, with N253A, H254A counted along it

- IC50 (cUSP47CD; Ub-AMC, USP47 50 nM, 10 min at 25 °C, triplicate, mean ± SD): 1.4 ± 0.2 µM
- Residual enzymatic activity, cUSP47CD_IC50(p50429) (cUSP47CD; inhibitor concentration 0.0244141, three replicates, 0.0244141 µM): 98.3931 and 102.68
- remaining activity at 0.0244141 µM (cUSP47CD; inhibitor concentration 0.0244141, three replicates, read-out: Residual enzymatic activity, cUSP47CD_IC50(p50429)): 106%
- Residual enzymatic activity, cUSP47CD_IC50(p50429) (cUSP47CD; inhibitor concentration 0.0488281, three replicates, 0.0488281 µM): 94.8604 and 95.1269
- remaining activity at 0.0488281 µM (cUSP47CD; inhibitor concentration 0.0488281, three replicates, read-out: Residual enzymatic activity, cUSP47CD_IC50(p50429)): 100%
- Residual enzymatic activity, cUSP47CD_IC50(p50429) (cUSP47CD; inhibitor concentration 0.0976562, three replicates, 0.0976562 µM): 90.0141 and 90.4933
- remaining activity at 0.0976562 µM (cUSP47CD; inhibitor concentration 0.0976562, three replicates, read-out: Residual enzymatic activity, cUSP47CD_IC50(p50429)): 86.3%
- Residual enzymatic activity, cUSP47CD_IC50(p50429) (cUSP47CD; inhibitor concentration 0.195312, three replicates, 0.195312 µM): 70.9575 and 84.4737
- remaining activity at 0.195312 µM (cUSP47CD; inhibitor concentration 0.195312, three replicates, read-out: Residual enzymatic activity, cUSP47CD_IC50(p50429)): 90.3%
- Residual enzymatic activity, cUSP47CD_IC50(p50429) (cUSP47CD; inhibitor concentration 0.390625, three replicates, 0.390625 µM): 71.1433 and 81.3617
- remaining activity at 0.390625 µM (cUSP47CD; inhibitor concentration 0.390625, three replicates, read-out: Residual enzymatic activity, cUSP47CD_IC50(p50429)): 83.2%
- Residual enzymatic activity, cUSP47CD_IC50(p50429) (cUSP47CD; inhibitor concentration 0.78125, three replicates, 0.78125 µM): 64.5756 and 70.9586
- remaining activity at 0.78125 µM (cUSP47CD; inhibitor concentration 0.78125, three replicates, read-out: Residual enzymatic activity, cUSP47CD_IC50(p50429)): 71.1%
- Residual enzymatic activity, cUSP47CD_IC50(p50429) (cUSP47CD; inhibitor concentration 1.5625, three replicates, 1.5625 µM): 47.6458 and 50.9074
- remaining activity at 1.5625 µM (cUSP47CD; inhibitor concentration 1.5625, three replicates, read-out: Residual enzymatic activity, cUSP47CD_IC50(p50429)): 52.3%
- Residual enzymatic activity, cUSP47CD_IC50(p50429) (cUSP47CD; inhibitor concentration 3.125, three replicates, 3.125 µM): 23.3806 and 22.8255
- remaining activity at 3.125 µM (cUSP47CD; inhibitor concentration 3.125, three replicates, read-out: Residual enzymatic activity, cUSP47CD_IC50(p50429)): 24.7%
- Residual enzymatic activity, cUSP47CD_IC50(p50429) (cUSP47CD; inhibitor concentration 6.25, three replicates, 6.25 µM): 13.3082 and 13.4812
- remaining activity at 6.25 µM (cUSP47CD; inhibitor concentration 6.25, three replicates, read-out: Residual enzymatic activity, cUSP47CD_IC50(p50429)): 23%
- Residual enzymatic activity, cUSP47CD_IC50(p50429) (cUSP47CD; inhibitor concentration 12.5, three replicates, 12.5 µM): 11.6652 and 7.474
- remaining activity at 12.5 µM (cUSP47CD; inhibitor concentration 12.5, three replicates, read-out: Residual enzymatic activity, cUSP47CD_IC50(p50429)): 11.3%
- Residual enzymatic activity, cUSP47CD_IC50(p50429) (cUSP47CD; inhibitor concentration 25, three replicates, 25 µM): 6.001 and 6.389
- remaining activity at 25 µM (cUSP47CD; inhibitor concentration 25, three replicates, read-out: Residual enzymatic activity, cUSP47CD_IC50(p50429)): 7.06%
- Residual enzymatic activity, cUSP47CD_IC50(p50429) (cUSP47CD; inhibitor concentration 50 (0–50 μM series), three replicates, 50 µM): 4.2047 and -1.497 and -1.461
- IC50 (hUSP7CD): 5.3 ± 1 µM
- DUB activity on K48-linked ubiquitin chains (Flag-USP7): inhibited the DUB activity
Molecule: CS(=O)(=O)c1ccc(NC(=O)c2cc(C#N)c(Sc3c(Cl)cncc3Cl)s2)cc1 [P50429]

Molecule: USP47i-2: USP47 siRNA #2, 5′-TGAAAAGGGATGTGCAAAA-3′ (chemistry not given here)
- relative expression level of USP7 (Q-PCR) (HCT116 (p53+/+) cells): 0.9487
- relative expression level of USP47 (Q-PCR) (HCT116 (p53+/+) cells): 0.486

Molecule: O=C(C[C@@H](C(F)F)n1ccc(F)n1)N1CCC(O)(Cn2cnc3c(cnn3-c3ccc(F)cc3)c2=O)CC1 [FT671]
- Enzyme activity cUSP47CD+FT671 relative to cUSP47CD without FT671 (=100) (cUSP47CD; FT671 5 μM, Ub-AMC 35 μM, mean and three replicates, 5 µM): 108.41 and 98.6437 and 106.057
- remaining activity at 5 µM (cUSP47CD; FT671 5 μM, Ub-AMC 35 μM, mean and three replicates, read-out: Enzyme activity cUSP47CD+FT671 relative to cUSP47CD without FT671 (=100)): 104%
- inhibition of cUSP47CD wild type by FT671 (cUSP47CD; FT671 5 μM, Ub-AMC, Fig. 5d): no inhibition
- inhibition of USP7 wild type by FT671 (hUSP7CD; FT671 5 μM, Ub-AMC, Fig. 5d): complete inhibition
- change in activity of cUSP47CD^R309N with FT671 (cUSP47CD^R309N): no change in the activity
- reduction in the activity of cUSP47CD^A416NA417H with FT671 (cUSP47CD^A416NA417H): ~40%
- inhibition of cUSP47CD^R309NA416NA417H by FT671 (cUSP47CD^R309NA416NA417H): even more inhibition
- reduction in the activity of hUSP7CD^N460AH461A in the presence of FT671 (hUSP7CD^N460AH461A): ~ 80%
- potency and specificity for USP7 (USP7): high potency and specificity only for USP7

Molecule: C=C1C(=O)O[C@H]2[C@H]1CC/C(C)=C/CC[C@@]1(C)O[C@@H]21 [Parthenolide]
- inhibition of USP7 (USP7): can also inhibit both DUBs
- inhibition of USP47 (USP47): can also inhibit both DUBs

Molecule: CCc1c(-c2ccc(C(=O)NC)nc2)cnc(N)c1-c1ccc(O)cc1 [GNE6776]
- potency and specificity for USP7 (USP7): high potency and specificity only for USP7
